Assay results reported in patent publication US6355799B1, “Substituted benzene compounds, process for their preparation, and herbicidal and defoliant compositions containing them” (ISK Americas Incorporated, priority 1997, dated 2002).

Legend:
Format in all cases: in vivo
[1] = test system: ivyleaf morningglory (Ipomoea hederacea, IPOHE); assay: Post-emerge test, greenhouse herbicide activity screening; settings: rating scale 0-100 (0 no damage, 100 complete death), 14 days after application
Procedure, shortened: (§1)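 Compounds in acetone were track-sprayed at 15–1000 g ai/ha: pre-emergence onto soil sown the previous day, then top-watered to incorporate and later bottom-watered; post-emergence onto 2–3 leaf plants with 0.25% v/v surfactant, bottom-watered only. Ratings on a 0–100 phytotoxicity scale were taken at day 14.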

[2] = test system: lambsquarters (Chenopodium album, CHEAL); assay: as above; settings: rating scale 0-100 (0 no damage, 100 complete death), 14 days after application
Procedure, shortened: as §1

[3] = test system: green foxtail (Setaria viridis, SETVI); assay: as above; settings: rating scale 0-100 (0 no damage, 100 complete death), 14 days after application
Procedure, shortened: as §1

[4] = test system: barnyardgrass (Echinochloa crus-galli, ECHCG); assay: as above; settings: rating scale 0-100 (0 no damage, 100 complete death), 14 days after application
Procedure, shortened: as §1

[5] = test system: common ragweed (Ambrosia artemisizfolia L., AMBEL); assay: as above; settings: rating scale 0-100 (0 no damage, 100 complete death), 14 days after application
Procedure, shortened: as §1

[6] = test system: large crabgrass (Digitaria sanguinalis, DIGSA); assay: as above; settings: rating scale 0-100 (0 no damage, 100 complete death), 14 days after application
Procedure, shortened: as §1

[7] = test system: redroot pigweed (Amaranthus retroflexus, AMARE); assay: as above; settings: rating scale 0-100 (0 no damage, 100 complete death), 14 days after application
Procedure, shortened: as §1

[8] = test system: sicklepod (Cassia obtusifolia, CASOB); assay: as above; settings: rating scale 0-100 (0 no damage, 100 complete death), 14 days after application
Procedure, shortened: as §1

[9] = test system: velvetleaf (Abutilon theophrasti, ABUTH); assay: as above; settings: rating scale 0-100 (0 no damage, 100 complete death), 14 days after application
Procedure, shortened: as §1

[10] = test system: ivyleaf morningglory (Ipomoea hederacea, IPOHE); assay: Pre-emerge test, greenhouse herbicide activity screening; settings: rating scale 0-100, 14 days after application
Procedure, shortened: (§2)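 Visual ratings on a 0-100 scale (0 no damage, 100 all plants dead) were taken at 14 days after treatment. Rates of 15-1000 g ai/ha in acetone, 187 l/ha, were sprayed onto soil one day after planting (pre-emerge) or onto 2-3 leaf plants with 0.25% v/v surfactant (post-emerge).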

[11] = test system: lambsquarters (Chenopodium album, CHEAL); assay: as above; settings: rating scale 0-100, 14 days after application
Procedure, shortened: as §2

[12] = test system: green foxtail (Setaria viridis, SETVI); assay: as above; settings: rating scale 0-100, 14 days after application
Procedure, shortened: as §2

[13] = test system: johnsongrass (Sorghum halepense, SORHA); assay: as above; settings: rating scale 0-100, 14 days after application
Procedure, shortened: as §2

[14] = test system: barnyardgrass (Echinochloa crus-galli, ECHCG); assay: as above; settings: rating scale 0-100, 14 days after application
Procedure, shortened: as §2

[15] = test system: common ragweed (Ambrosia artemisizfolia L., AMBEL); assay: as above; settings: rating scale 0-100, 14 days after application
Procedure, shortened: as §2

[16] = test system: large crabgrass (Digitaria sanguinalis, DIGSA); assay: as above; settings: rating scale 0-100, 14 days after application
Procedure, shortened: as §2

[17] = test system: sicklepod (Cassia obtusifolia, CASOB); assay: as above; settings: rating scale 0-100, 14 days after application
Procedure, shortened: as §2

[18] = test system: velvetleaf (Abutilon theophrasti, ABUTH); assay: as above; settings: rating scale 0-100, 14 days after application
Procedure, shortened: as §2

[19] = test system: field corn (Zea mays L., var. Dekalb 535, CORN); assay: Post-emerge test, crop safety; settings: rating scale 0-100 (0 no damage, 100 complete death), 14 days after application
Procedure, shortened: as §2

[20] = test system: upland rice (Oryza sp., var. Tebonnet, RICE); assay: Post-emerge test, crop safety; settings: rating scale 0-100 (0 no damage, 100 complete death), 14 days after application
Procedure, shortened: as §2

[21] = test system: field corn (Zea mays L., var. Dekalb 535, CORN); assay: Pre-emerge test, crop safety; settings: rating scale 0-100, 14 days after application
Procedure, shortened: (§3)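 Applied at 15–1000 g ai/ha from acetone in 187 l/ha spray volume. Post-emergence applications included 0.25% v/v non-ionic surfactant and reached plants sown 8–21 days before. Pre-emergence applications were incorporated by surface watering. Efficacy or crop damage was rated on a 0–100 scale after 14 days.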

[22] = test system: upland rice (Oryza sp., var. Tebonnet, RICE); assay: Pre-emerge test, crop safety; settings: rating scale 0-100, 14 days after application
Procedure, shortened: as §3

[23] = test system: redroot pigweed (Amaranthus retroflexus, AMARE); assay: Pre-emerge test, greenhouse herbicide activity screening; settings: rating scale 0-100, 14 days after application
Procedure, shortened: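 Compounds in acetone were track-sprayed at 187 l/ha, 15–1000 g ai/ha, onto sandy loam pots. Pre-emerge seeds were sown one day before spraying, with surface watering afterwards. Post-emerge plants were at the 2–3 leaf stage and sprayed with 0.25% v/v non-ionic surfactant. Injury was rated 0–100 at 14 days.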

CCCCCCOC(=O)C(Cl)Cc1c(OC)c(Cl)cc(F)c1-n1c(=O)cc(C(F)(F)F)n(C)c1=O (single isomer, unassigned) [14-12]
Post-emerge Herbicidal Activity, phytotoxicity rating IPOHE ([1]; Rate 63 g ai/ha): 40 | Post-emerge Herbicidal Activity, phytotoxicity rating IPOHE ([1]; Rate 250 g ai/ha): 70 | Post-emerge Herbicidal Activity, phytotoxicity rating CHEAL ([2]; Rate 63 g ai/ha): 90 | Post-emerge Herbicidal Activity, phytotoxicity rating CHEAL ([2]; Rate 250 g ai/ha): 99 | Post-emerge Herbicidal Activity, phytotoxicity rating SETVI ([3]; Rate 63 g ai/ha): 30 | Post-emerge Herbicidal Activity, phytotoxicity rating SETVI ([3]; Rate 250 g ai/ha): 40 | Post-emerge Herbicidal Activity, phytotoxicity rating ECHCG ([4]; Rate 63 g ai/ha): 98 | Post-emerge Herbicidal Activity, phytotoxicity rating ECHCG ([4]; Rate 250 g ai/ha): 99 | Post-emerge Herbicidal Activity, phytotoxicity rating AMBEL ([5]; Rate 63 g ai/ha): 80 | Post-emerge Herbicidal Activity, phytotoxicity rating AMBEL ([5]; Rate 250 g ai/ha): 80 | Post-emerge Herbicidal Activity, phytotoxicity rating DIGSA ([6]; Rate 63 g ai/ha): 50 | Post-emerge Herbicidal Activity, phytotoxicity rating DIGSA ([6]; Rate 250 g ai/ha): 60 | Post-emerge Herbicidal Activity, phytotoxicity rating AMARE ([7]; Rate 63 g ai/ha): 85 | Post-emerge Herbicidal Activity, phytotoxicity rating AMARE ([7]; Rate 250 g ai/ha): 90 | Post-emerge Herbicidal Activity, phytotoxicity rating CASOB ([8]; Rate 63 g ai/ha): 20 | Post-emerge Herbicidal Activity, phytotoxicity rating CASOB ([8]; Rate 250 g ai/ha): 80 | Post-emerge Herbicidal Activity, phytotoxicity rating ABUTH ([9]; Rate 63 g ai/ha): 10 | Post-emerge Herbicidal Activity, phytotoxicity rating ABUTH ([9]; Rate 250 g ai/ha): 85 | Pre-emerge herbicidal activity, phytotoxicity rating IPOHE ([10]; 63 g ai/ha): 0 | Pre-emerge herbicidal activity, phytotoxicity rating IPOHE ([10]; 250 g ai/ha): 0 | Pre-emerge herbicidal activity, phytotoxicity rating CHEAL ([11]; 63 g ai/ha): 50 | Pre-emerge herbicidal activity, phytotoxicity rating CHEAL ([11]; 250 g ai/ha): 60 | Pre-emerge herbicidal activity, phytotoxicity rating SETVI ([12]; 63 g ai/ha): 0 | Pre-emerge herbicidal activity, phytotoxicity rating SETVI ([12]; 250 g ai/ha): 0 | Pre-emerge herbicidal activity, phytotoxicity rating SORHA ([13]; 63 g ai/ha): 0 | Pre-emerge herbicidal activity, phytotoxicity rating SORHA ([13]; 250 g ai/ha): 0 | Pre-emerge herbicidal activity, phytotoxicity rating ECHCG ([14]; 63 g ai/ha): 0 | Pre-emerge herbicidal activity, phytotoxicity rating ECHCG ([14]; 250 g ai/ha): 0 | Pre-emerge herbicidal activity, phytotoxicity rating AMBEL ([15]; 63 g ai/ha): 0 | Pre-emerge herbicidal activity, phytotoxicity rating AMBEL ([15]; 250 g ai/ha): 0 | Pre-emerge herbicidal activity, phytotoxicity rating DIGSA ([16]; 63 g ai/ha): 0 | Pre-emerge herbicidal activity, phytotoxicity rating DIGSA ([16]; 250 g ai/ha): 100 | Pre-emerge herbicidal activity, phytotoxicity rating CASOB ([17]; 63 g ai/ha): 0 | Pre-emerge herbicidal activity, phytotoxicity rating CASOB ([17]; 250 g ai/ha): 0 | Pre-emerge herbicidal activity, phytotoxicity rating ABUTH ([18]; 63 g ai/ha): 0 | Pre-emerge herbicidal activity, phytotoxicity rating ABUTH ([18]; 250 g ai/ha): 20 | Post-emerge phytotoxicity rating CORN (crop damage) ([19]; Rate 63 g ai/ha): 30 | Post-emerge phytotoxicity rating CORN (crop damage) ([19]; Rate 250 g ai/ha): 85 | Post-emerge phytotoxicity rating RICE (crop damage) ([20]; Rate 63 g ai/ha): 0 | Post-emerge phytotoxicity rating RICE (crop damage) ([20]; Rate 250 g ai/ha): 10 | Pre-emerge phytotoxicity rating, crop damage CORN ([21]; 63 g ai/ha): 0 | Pre-emerge phytotoxicity rating, crop damage CORN ([21]; 250 g ai/ha): 0 | Pre-emerge phytotoxicity rating, crop damage RICE ([22]; 63 g ai/ha): 0 | Pre-emerge phytotoxicity rating, crop damage RICE ([22]; 250 g ai/ha): 0 | Pre-emerge herbicidal activity, phytotoxicity rating AMARE ([23]; 63 g ai/ha): 60 | Pre-emerge herbicidal activity, phytotoxicity rating AMARE ([23]; 250 g ai/ha): 100
